{"source": "patent US20070225213A1", "about": "“Nucleic acid carriers for delivery of therapeutic agents” (priority 2006, published 2007)", "key": {"[1]": {"tested_on": "BHK21", "experiment": "Cell uptake by MTN fluorescence EX620/EM680 (Examples 10 and 13, EX051605)", "format": "cell-based, hamster", "conditions": "10% w/w loading in DNA", "procedure": "Materials: HSGDNA, MTN, ODNAS1116 (phosphorothioated, single stranded DNA, and Beta-cyclodextrin polymer (BCD-SBE, KKBIOMED Inc.) were previously prepared in water at 10 mg/ml, 1 mg/ml, 0.95 mg/ml, and 10 mg/ml respectively.\nProcedure: For NAC-MTN, combined 37 ul HSGDNA (herring genomic DNA, Promega Inc.), 1426 ul HBSS( Hank's buffered saline, Sigma-Aldrich), with 37 ul of MTN, followed by 1500 ul 2× DMEM media to give 3 ml final and 24 uM (24 micro-molar) MTN and 10% w/w drug loading of MTN. For NAC-MTN (AR1505) combined 62 ul of HSDNA (deg. herring sperm DNA, Sigma) with 2377 ul HBSS, 61.7 ul MTN, 2500 ul 2× media to give 5 ml final and 24 uM MTN and 10% w/w drug loading of MTN to HSDNA. […]\nPlate#1 Media was aspirated and cells treated with 100 ul of either NAC-MTN, CD-MTN, or MTN at 24 uM MTN final or 12.3 ug/ml MTN in all samples. Samples containing MTN were incubated 4 hours, removed, and fluorescence taken at EX620/EM680. […]\nSamples were incubated 4 hours, removed, and MTN fluorescence taken at EX620/EM680. […] Average MTN fluorescence was averaged from 6 wells. For each cell type, MTN fluorescence was highest in MTN treated cells, followed by CD-MTN, and lowest in NAC-MTN. […]\nPLATE#2: Dispensed 50 ul from source plate into plate #2 to give 150 ul final vol 4.1 ug/ml, 8 uMfinal per well, pre-read fluorescence w samples (bkgd) incubated 5 hr, removed, replaced w/ media, read fluor. […]"}, "[2]": {"experiment": "In vivo MTN distribution in organs after single i.v. dose (Example 15, EX102005)", "set-up": "species or system mice", "conditions": "iv, 0.075 mg MTN per mouse i.v.", "procedure": "Procedure: Prior to formulation of MTN with carrier, the DNA carrier was standardized and assayed for loading limits with MTN by absorbance spectrometry. […] Herring sperm […] […] One milliliter (1 ml) of each homogenate was then transferred to a 1.7 ml centrifuge tube and centrifuged for 10 min at 10000 rcf. Supernatants were removed and fluorescence of 0.3 ml of samples was read at 620/680 nm s=50. […] Total MTN was calculated by converting fluorescence data to mg/ml MTN using a MTN standard curve. The mg/ml MTN was then multiplied by total vol. homogenate to obtain total MTN per organ."}}, "note": "Where two headings read alike, the source gives them in different places.", "data": [{"smiles": "O=C1c2c(O)ccc(O)c2C(=O)c2c(NCCNCCO)ccc(NCCNCCO)c21", "note": "[MTN, mitoxantrone]", "values": [{"measurement": "% reduction in fluorescence relative to MTN alone (MTN = 0%)", "setting": "[1]; Plate#1, 24 uM MTN, 4 hours", "result": 0, "unit": "%"}, {"measurement": "% reduction in fluorescence relative to MTN alone (MTN = 0%)", "setting": "[1]; Plate#2, 8 uM MTN", "result": 0, "unit": "%"}, {"measurement": "concentration at 1 h", "setting": "[2]; heart, read-out: Density of MTN in tissue: Heart", "result": 96000, "unit": "ng/g"}, {"measurement": "concentration at 1 h", "setting": "[2]; kidney, read-out: Density of MTN in tissue: Kidney", "result": 49000, "unit": "ng/g"}, {"measurement": "concentration at 1 h", "setting": "[2]; liver, read-out: Density of MTN in tissue: Liver", "result": 10000, "unit": "ng/g"}, {"measurement": "concentration at 1 h", "setting": "[2]; lung, read-out: Density of MTN in tissue: Lung", "result": 43000, "unit": "ng/g"}]}]}
